Assay results published in article PMC11157048 (Frontiers in Pharmacology, 2024).

Experiments:
[1] = Pharmacokinetics in AAV8-Ctrl mice; settings: C57BL/6J, mouse, serum, po, 16.5 mg/kg; for CL/F: CLz/F; for Vd/F: Vz/F; for half-life: t1/2z
[2] = Pharmacokinetics in AAV8-CYP3A4*1 mice; settings: C57BL/6J, mouse, in vivo, po, 16.5 mg/kg; for CL/F: CLz/F; for Vd/F: Vz/F; for half-life: t1/2z
[3] = Pharmacokinetics in AAV8-CYP3A4*12 mice; settings: C57BL/6J, mouse, serum, po, 16.5 mg/kg; for CL/F: CLz/F; for Vd/F: Vz/F; for half-life: t1/2z
[4] = Pharmacokinetics of aumolertinib and HAS-719 in SD rats; settings: for AUC(0-t) / AUC(0-inf) / CL/F / Cmax / Tmax / Vd/F / half-life: Sprague-Dawley, rat, plasma, po, 11 mg/kg; for CL/F: CLz/F; for Vd/F: Vz/F; for half-life: t1/2z
CYP3A4.1 = CYP3A4.1 (Homo sapiens, UniProt P08684); assay: Enzyme kinetics of aumolertinib, recombinant CYP3A4.1; format: in vitro ADME; parameters: made in house; host or cells: Sf21 insect cells (baculovirus); settings: CYP3A4.1, text value
Sequence of CYP3A4.1 (P08684 whole entry): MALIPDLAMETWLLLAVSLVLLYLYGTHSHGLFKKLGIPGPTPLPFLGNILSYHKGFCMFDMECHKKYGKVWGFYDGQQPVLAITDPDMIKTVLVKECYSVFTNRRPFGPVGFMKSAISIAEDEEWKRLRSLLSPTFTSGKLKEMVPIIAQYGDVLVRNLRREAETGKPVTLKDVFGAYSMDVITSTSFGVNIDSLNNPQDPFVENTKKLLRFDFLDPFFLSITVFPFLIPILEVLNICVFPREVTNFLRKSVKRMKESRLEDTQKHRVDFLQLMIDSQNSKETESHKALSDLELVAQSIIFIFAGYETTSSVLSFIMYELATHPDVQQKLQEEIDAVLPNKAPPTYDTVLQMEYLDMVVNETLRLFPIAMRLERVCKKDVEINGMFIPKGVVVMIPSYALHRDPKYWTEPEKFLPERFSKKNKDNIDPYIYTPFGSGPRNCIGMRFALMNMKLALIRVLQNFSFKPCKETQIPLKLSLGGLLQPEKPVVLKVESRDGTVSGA
Experimental: Specifically, first the pFastBac-CYPOR-CYP3A4 and CYPb5 plasmids are constructed, then the plasmids are transformed into DH10Bac cells to obtain the bacmid DNA. Subsequently, the bacmid DNA is transfected into Sf21 insect cells to generate high titer recombinant baculoviruses. After infecting the Sf21 cells with the high titer baculovirus, the cell suspension is collected. Finally, the cells are disrupted by sonication, and the microsomes are prepared by ultracentrifugation. To examine the expression of the target proteins and the CYP content, Western blot analysis and carbon monoxide difference spectroscopy were performed, respectively.
The reaction start, termination and sample processing are the same as described above.

[5] = aumolertinib 16.5 mg/kg oral alone (Aum)
[6] = carvedilol 7.5 mg/kg 0.5 h before aumolertinib 16.5 mg/kg oral (Car+Aum)
[7] = telmisartan 12 mg/kg 0.5 h before aumolertinib 16.5 mg/kg oral (Tel+Aum)
[8] = aumolertinib 11 mg/kg oral alone (Aum)
[9] = carvedilol 5 mg/kg oral 0.5 h before aumolertinib 11 mg/kg oral (Car + Aum)
[10] = telmisartan 8 mg/kg oral 0.5 h before aumolertinib 11 mg/kg oral (Tel + Aum)

## C=CC(=O)Nc1cc(Nc2nccc(-c3cn(C4CC4)c4ccccc34)n2)c(OC)cc1N(C)CCN(C)C [Aumolertinib]
[1]; [5]
  AUC(0-t): 1800 ng·h/mL
  AUC(0-inf): 1850 ng·h/mL
  CL/F: 148 mL/min/kg
  Cmax: 177 ± 59.9 ng/mL
  Tmax: 1.29 ± 0.49 h
  Vd/F: 98.8 ± 56.3 L/kg
  half-life: 8.21 ± 5.1 h
[1]; [6]
  AUC(0-t): 1970 ng·h/mL
  AUC(0-inf): 1980 ng·h/mL
  CL/F: 145 mL/min/kg
  Cmax: 99.8 ± 27.5 ng/mL
  Tmax: 17.7 ± 10.7 h
  Vd/F: 38.6 ± 23.7 L/kg
  half-life: 3.12 ± 1.79 h
[1]; [7]
  AUC(0-t): 3230 ng·h/mL
  AUC(0-inf): 3810 ng·h/mL
  CL/F: 83 mL/min/kg
  Cmax: 163 ± 65.6 ng/mL
  Tmax: 2.43 ± 1.13 h
  Vd/F: 68.2 ± 44.6 L/kg
  half-life: 9.43 ± 4.77 h
[2]; [5]
  AUC(0-t): 1370 ng·h/mL
  AUC(0-inf): 1390 ng·h/mL
  CL/F: 221 mL/min/kg
  Cmax: 95.4 ± 26.4 ng/mL
  Tmax: 1.64 ± 1.18 h
  Vd/F: 165 ± 125 L/kg
  half-life: 7.89 ± 2.76 h
[2]; [6]
  AUC(0-t): 1730 ng·h/mL
  AUC(0-inf): 1970 ng·h/mL
  CL/F: 145 mL/min/kg
  Cmax: 96.5 ± 39 ng/mL
  Tmax: 11.6 ± 11.7 h
  Vd/F: 105 ± 73.6 L/kg
  half-life: 9.63 ± 8.92 h
[2]; [7]
  AUC(0-t): 2890 ng·h/mL
  AUC(0-inf): 3710 ng·h/mL
  CL/F: 110 mL/min/kg
  Cmax: 154 ± 62.7 ng/mL
  Tmax: 16.3 ± 14.1 h
  Vd/F: 49.9 ± 33.6 L/kg
  half-life: 5.75 ± 3.22 h
[3]; [5]
  AUC(0-t): 3300 ng·h/mL
  AUC(0-inf): 3460 ng·h/mL
  CL/F: 87.2 mL/min/kg
  Cmax: 194 ± 48.8 ng/mL
  Tmax: 5.14 ± 8.32 h
  Vd/F: 83.2 ± 30.5 L/kg
  half-life: 11.9 ± 5.16 h
[3]; [6]
  AUC(0-t): 2480 ng·h/mL
  AUC(0-inf): 2510 ng·h/mL
  CL/F: 124 mL/min/kg
  Cmax: 143 ± 102 ng/mL
  Tmax: 8 ± 7.57 h
  Vd/F: 70.4 ± 38.6 L/kg
  half-life: 6.44 ± 2.34 h
[3]; [7]
  AUC(0-t): 4460 ng·h/mL
  AUC(0-inf): 8020 ng·h/mL
  CL/F: 51.3 mL/min/kg
  Cmax: 186 ± 74.4 ng/mL
  Tmax: 9.43 ± 10.2 h
  Vd/F: 90.3 ± 85 L/kg
  half-life: 29.1 ± 28.9 h
[4]; [8]
  AUC(0-t): 65.9 ± 27.6 ng·h/mL
  AUC(0-inf): 65.9 ± 27.6 ng·h/mL
  CL/F: 3090 mL/min/kg
  Cmax: 9.48 ± 3.93 ng/mL
  Tmax: 5.17 ± 1.33 h
  Vd/F: 675 ± 273 L/kg
  half-life: 2.62 ± 0.94 h
[4]; [9]
  AUC(0-t): 198 ± 121 ng·h/mL
  AUC(0-inf): 203 ± 133 ng·h/mL
  CL/F: 1150 mL/min/kg
  Cmax: 21.8 ± 8 ng/mL
  Tmax: 7.33 ± 2.42 h
  Vd/F: 375 ± 140 L/kg
  half-life: 4.44 ± 2.79 h
[4]; [10]
  AUC(0-t): 153 ± 175 ng·h/mL
  AUC(0-inf): 153 ± 175 ng·h/mL
  CL/F: 2060 mL/min/kg
  Cmax: 8.73 ± 7.55 ng/mL
  Tmax: 8.67 ± 2.73 h
  Vd/F: 582 ± 299 L/kg
  half-life: 3.21 ± 0.24 h
[4]; carvedilol 5 mg/kg + aumolertinib 11 mg/kg oral vs aumolertinib alone
  increase of AUC(0-t) after combination with carvedilol: more than 3 time
CYP3A4.1
  Clint: 0.58 μL/min/pmol CYP
CYP3A4.1; human, recombinant CYP3A4.1 cell microsomes (Sf21 insect cells)
  Km: 3.2 µM
